In patent US8207091B2, “Methods for improving growth and crop productivity of plants by adjusting plant hormone levels, ratios and/or co-factors” (Stoller Enterprises, Inc., priority 2004, dated 2012):

Legend:
Format in all cases: in vivo
[1] = system: National pickling cucumber; assay: Effects of PGRs on cucumber internode length, 21 days; conditions: soil applied weekly, 21 days after planting; for Internode 1 length: first (bottom) internode, 6 oz/acre or 0.42 micrograms; for Internode 2 length: second (middle) internode; for Internode 3 length: third (top) internode
Protocol: In this experiment, the effect of PGRs on cucumber internode length was determined. The cucumber variety used was the National pickling cucumber distributed by NK Lawn & Garden Co. (Chattanooga, Tenn.). Eight plants were used per treatment. Treatments were applied to the soil of each five-gallon pot containing one plant per pot. Treatments were 6 oz/acre PGR solution. The final PGR solution was prepared by diluting 0.0042 ml of the concentrated solution into 100 ml water. The IAA solution was prepared by diluting 0.42 micrograms of IAA into 100 ml water. The cytokinin solution was prepared by diluting 0.42 micrograms of kinetin into 100 ml water. Finally, plants were treated with 6 oz/acre N-Large. The treating solution was prepared by diluting 0.0042 ml of the commercial solution into 100 ml water. N-Large is a formulation containing 4 percent gibberellin (GA3). Water was used as a control. Treatments were applied to the soil at the time of planting, and weekly thereafter. Twenty-one (21) days after planting, the internode length of the first (bottom), second (middle), and third (top) internodes were measured to the nearest millimeter. The average internode length for first, second, and third internodes was calculated for each treatment. Results are tabulated in Table IV and illustrated in FIG. 8.

radish plants [2] = assay: Radish shoot height, treated twice at four day intervals; conditions: IAA and kinetin equivalent to relative amounts in 6 oz/acre PGR solution; two treatments; 15 plants
Protocol: In this portion of the experiment radish plants were treated twice at four day intervals. Plants were treated first on emergence, and again four (4) days later. Measurements were taken one week after the last treatment. Treatments are equivalent to 6 oz/acre, 12 oz/acre, and 24 oz/acre of PGR solution, while the IAA and kinetin treatments are equivalent to the relative amounts in the 6 oz/acre rate of PGR solution. […] The results of these experiments are tabulated in Table II and illustrated in FIG. 5.

[3] = system: National pickling cucumber; assay: Effects of PGRs on cucumber vines and fruit, 84 days; conditions: for Average Branch Number / Average Internode Number / Average Vine Length: 84 days after planting; for Average Internode Length: 84 days, vine length divided by internode number; for Average Cucumber Weight: harvested 84 days after planting
Tomato variety TSH04 = assay: Effects of PGRs on tomato fruit weight (greenhouse); conditions: one truss per plant; 112 days after planting; PGR 6 oz/acre, IAA/kinetin 0.42 or 0.11 micrograms; soil or foliar not told apart
Protocol: In this experiment, the effects of PGRs on tomato yield were determined. Tomato variety TSH04, which is a processing tomato, was used. All plants were grown in five gallon pots in a greenhouse. Eight plants were used for each treatment. Application of the treatments was done aerially to eight plants and in the soil for eight plants to allow comparison of soil versus foliar application of the PGRs. Treatments were 6 oz/acre PGR solution. The treating solutions were prepared by diluting 0.0042 ml of concentrated solution into 100 ml water for application to the soil, or into 50 ml water for foliar application. The IAA solution was prepared by diluting 0.42 micrograms of IAA into 100 ml water for application to the soil, or into 50 ml water for foliar application. The cytokinin solution was prepared by diluting 0.42 micrograms of kinetin into 100 ml water for application to the soil, or into 50 ml water for spraying of the foliage. The solution containing both IAA and kinetin at a 1:1 ratio was prepared by diluting 0.42 micrograms of IAA and 0.42 micrograms of kinetin into 100 ml water for application to the soil, or into 50 ml water for foliar application. A solution containing both IAA and kinetin at a 4:1 ratio was prepared by diluting 0.42 micrograms of IAA and 0.11 micrograms of kinetin into 100 ml water for soil application, or into 50 ml water for foliar application. Finally, a solution containing both IAA and kinetin at a 1:4 ratio was prepared by diluting 0.11 micrograms of IAA and 0.42 micrograms of kinetin into 100 ml water for soil application, or into 50 ml water for foliar application. Water was employed as a control. Plants were kept pruned to one fruiting truss per plant and the weight of the fruit from each plant was measured when most of the fruit had ripened (112 days after planting). FIGS. 6 and 7 illustrate the increased fruit weight achieved, respectively, for total and individual fruits with each treatment.

radish plants [4] = assay: Effects of PGR on radish growth (soil applied); conditions: soil applied at planting and weekly, PGR solution 12 oz/acre, IAA or kinetin 0.84 micrograms per square foot; for Average Leaf Length: largest leaf, 21 days after planting, ± SD of the mean; for Average Hypocotyl Length: measured 21 days after planting, ± standard deviation of the mean
Protocol: In this experiment, the effects of PGRs on radish growth were observed. A total of eighty (80) plants were used for this experiment. Twenty (20) plants were treated with water as a control. Twenty (20) plants were treated with a PGR solution corresponding to a rate of 12 oz/acre. The PGR solution is an aqueous solution including 0.015% IAA, 0.005% IBA, 0.009% cytokinin and 0.005% gibberellic acid as active ingredients. […] A small measure, 0.0084 ml of this solution, was diluted into 100 ml of water and applied to the soil of a container having a surface area of about 1 square foot to correspond to an application rate of 12 oz/acre. Twenty (20) plants were treated with an auxin solution containing indole-3-acetic acid (IAA) at a rate of 0.84 micrograms in 100 ml water per square foot of surface area of the container. Finally, twenty (20) plants were treated with the cytokinin kinetin at a rate of 0.84 micrograms in 100 ml water per square foot of surface area of the container. Treatments were applied to soil at the time of planting and repeated every week thereafter. Length of the hypocotyl and largest leaf of each plant was measured 21 days after planting. The mean hypocotyl length and leaf length was calculated. Results are tabulated in Table I and illustrated in FIGS. 3 and 4.

O=C(O)Cc1c[nH]c2ccccc12 [Auxin, indole-3-acetic acid]
Internode 1 length [1]: 115.88 ± 4.01 millimeters
Internode 2 length [1]: 25.38 ± 3.13 millimeters
Internode 3 length [1]: 4.50 ± 1.91 millimeters
Shoot Height Foliar Applied (radish plants [2]): 91.46 ± 4.20 mm
Average Branch Number [3]: 7.25 ± 1.86
Average Internode Number [3]: 30.75 ± 1.96
Average Vine Length [3]: 267.00 ± 5.70 mm
Average Internode Length [3]: 8.72 ± 0.87 mm
Average Cucumber Weight [3]: 311.98 ± 9.17 gm
Average total fruit weight per plant (Tomato variety TSH04): 63.79 ± 7.59 grams
Average weight of each fruit (Tomato variety TSH04): 11.45 ± 1.99 grams
Average Leaf Length (radish plants [4]): 121.15 ± 5.20 mm
Average Hypocotyl Length (radish plants [4]): 51.15 ± 2.64 mm

c1coc(CNc2ncnc3[nH]cnc23)c1 [Cytokinin, kinetin]
Internode 1 length [1]: 106.38 ± 3.98 millimeters
Internode 2 length [1]: 20.25 ± 3.40 millimeters
Internode 3 length [1]: 2.13 ± 1.25 millimeters
Shoot Height Foliar Applied (radish plants [2]): 89.00 ± 4.55 mm
Average Branch Number [3]: 6.25 ± 2.27
Average Internode Number [3]: 30.50 ± 1.75
Average Vine Length [3]: 255.50 ± 5.61 mm
Average Internode Length [3]: 8.37 ± 0.62 mm
Average Cucumber Weight [3]: 229.71 ± 1.33 gm
Average total fruit weight per plant (Tomato variety TSH04): 89.08 ± 6.85 grams
Average weight of each fruit (Tomato variety TSH04): 14.76 ± 2.47 grams
Average Leaf Length (radish plants [4]): 101.25 ± 4.46 mm
Average Hypocotyl Length (radish plants [4]): 46.10 ± 3.10 mm
